We go through 78 compounds from US11225469B2, “Inhibitors of phosphoglycerate dehydrogenase (PHGDH) and uses thereof” (Whitehead Institute for Biomedical Research, priority 2015, dated 2022).

Molecules are shown by their SMILES.

For the assay, the target named is PHGDH (Homo sapiens (Human), UniProt O43175). As to the kind of experiment: PHGDH inhibition, coupled assay with PSAT1/PSPH and diaphorase/resazurin readout. The format is biochemical. As to conditions: Table E9; mixture with PSAT1, PSPH; diaphorase/resazurin reporter.
PHGDH, sequence (O43175 whole entry): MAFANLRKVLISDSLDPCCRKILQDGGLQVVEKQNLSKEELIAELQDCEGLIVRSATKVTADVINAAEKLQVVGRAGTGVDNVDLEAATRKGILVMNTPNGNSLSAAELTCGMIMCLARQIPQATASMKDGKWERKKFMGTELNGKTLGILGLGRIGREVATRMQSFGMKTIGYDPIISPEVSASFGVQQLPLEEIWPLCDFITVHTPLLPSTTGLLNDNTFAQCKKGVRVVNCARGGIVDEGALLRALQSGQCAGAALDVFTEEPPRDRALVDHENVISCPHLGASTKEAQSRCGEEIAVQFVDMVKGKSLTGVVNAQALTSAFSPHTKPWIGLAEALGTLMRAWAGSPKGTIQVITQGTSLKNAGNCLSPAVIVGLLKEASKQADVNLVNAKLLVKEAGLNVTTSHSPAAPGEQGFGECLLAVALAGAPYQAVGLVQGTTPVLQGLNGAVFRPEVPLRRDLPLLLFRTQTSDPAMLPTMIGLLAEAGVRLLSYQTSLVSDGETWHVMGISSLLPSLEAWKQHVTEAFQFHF
Experimental: Compounds of the invention were assayed for inhibition of the activity phosphoglycerate dehydrogenase (PHGDH). The compounds were assayed in a mixture comprising PHGDH, PSAT1, PSPH, NADH, and glutamate. Diaphorase and resazurin were used as a fluorescent reporter system.
In this endogenous pathway coupled assay, the production of NADH by PHGDH was measured through the diaphorasemediated reduction of resazurin (See, e.g., Chakraborty, S., Sakka, M., Kimura, T. & Sakka, K. “Characterization of a dihydrolipoyl dehydrogenase having diaphorase activity of Clostridium kluyveri.” BioscL Biotechnol. Biochem. 72, 982-988 (2008)).
PHGDH assay buffer contained 50 mM TEA pH 8.0, 10 mM MgCl2, 0.05% BSA, and 0.01% Tween-20. PHGDH enzyme buffer consisted of assay buffer with 20 nM PHGDH and 0.2 mg/mL diaphorase. PHGDH substrate buffer contained 0.3 mM NAD 1.25 mM glutamate, 0.1 mM 3-phosphoglycerate, 0.2 mM resazurin, 1 μM PSAT1, and 1 μM PSPH. qHTS was performed in 1536-well plates dispensed with a BioRAPTR FRD. Each well contained equal volumes of substrate buffer and assay buffer. Plates were read at 0 minutes and 20 minutes at room temperature with a ViewLux uHTS Microplate Imager (PerkinElmer). Follow-up assays were performed in black 384-well plates (Greiner) in 20 μL of enzyme buffer to which compounds were added in dose-response with an HP D300 digital dispenser (Hewlett-Packard), followed by addition of 20 μL of substrate buffer. Plates were incubated at room temperature (25° C.) and read at 0 and 20 minutes with a Spectramax M5 plate reader (Molecular Devices) in fluorescence intensity mode with a λex=550 nm and λem=600 nm (emission cutoff=590 nm).
As a reminder, the IC50 is the point on the concentration scale where inhibition reaches its midpoint. For the compound `Cc1cc(C)nc(NC(=S)N2CCN(Cc3ccccc3Cl)CC2)c1` [Compound 289], the IC50 was in the range of 10 to 20 µM.
Consider `Cc1cc(C)nc(NC(=S)N2CCN(c3nccc4ccsc34)CC2)c1` [Compound 156], for which the IC50 is not below 20 µM.
As to `Cc1ccnc(NC(=S)NCCNc2cccc(C(F)(F)F)c2)c1` [Compound 22], the IC50 was 5 to 10 µM.
For `Cc1ccnc(NC(=S)N2CCN(c3ccccc3C(F)(F)F)CC2)c1` [Compound 41], the IC50 lay within 5 to 10 µM.
The value for `CC(Cc1ccccc1)C(=O)Nc1ccc(Cl)cc1C(=O)O` (stereo not drawn) [Compound 20] was not below 20 µM; that for `Cc1cc(C)nc(NC(=S)N2CCN(Cc3ccccc3C)CC2)c1` [Compound 276] was not below 20 µM.
As to `Cc1ccnc(NC(=S)N2CCCN(c3cccc(C(F)(F)F)c3)CC2)c1` [Compound 49], the IC50 lay in the range of 10 to 20 µM.
To `Cc1cc(C)nc(NC(=S)N2CCN(Cc3ccccc3Br)CC2)c1` [Compound 285] belongs 10 to 20 µM; to `S=C(Nc1cc(Cl)ccn1)N1CCN(c2ccc3ccccc3n2)CC1` [Compound 203], not below 20 µM.
As for `COc1cccc(NC(=S)N2CCN(c3cccc(C(F)(F)F)c3)CC2)n1` [Compound 38], the IC50 was in the range of 5 to 10 µM.
For `Cc1cc(C)nc(NC(=S)N2CCN(c3cc(C(F)(F)F)nc4ccc(C(F)(F)F)cc34)CC2)c1` [Compound 158], the IC50 is 5 to 10 µM.
As to `Cc1cc(C)nc(NC(=S)N2CCC(Cc3ccccc3)CC2)c1` [Compound 254], the IC50 was less than 5 µM.
The value for `Cc1cc(C)nc(NC(=S)N2CCN(c3cccc(OC(F)F)c3)CC2)c1` [Compound 135] was less than 5 µM; that for `Cc1cc(C)nc(NC(=S)N2CCN(Cc3ccc(C(F)(F)F)cc3)C(C)C2)c1` (stereo not drawn) [Compound 275] was less than 5 µM; that for `Cc1cc(C)nc(NC(=S)N2CCN(c3cc(Br)cc(C(F)(F)F)c3)CC2)c1` [Compound 142] was 5 to 10 µM.
Take `Cc1cc(C)nc(NC(=S)N2CCC(Nc3ccc(C(F)(F)F)cc3)CC2)c1` [Compound 258]: the IC50 was less than 5 µM.
As for `Cc1cc(C)nc(NC(=S)N2CCN(C3CCCCC3)CC2)c1` [Compound 253], the IC50 was 10 to 20 µM.
As to `Cc1cc(C)nc(NC(=S)N2CCN(c3ccc(F)cc3F)CC2)c1` [Compound 90], the IC50 was 5 to 10 µM.
To `Cc1cc(C)nc(NC(=S)N2CCN(Cc3cccnc3)CC2)c1` [Compound 283] belongs not below 20 µM.
The value for `Cc1cc(C)nc(NC(=S)N2CCN(Cc3ccc(C(F)(F)F)c(Cl)c3)CC2)c1` [Compound 300] was 5 to 10 µM; that for `Cc1cc(C)nc(NC(=S)N2CCN(CC3CCCCC3)CC2)c1` [Compound 255] was less than 5 µM.
In the case of `CC(=O)N1CCN(C(=S)Nc2cc(C)ccn2)CC1` [Compound 18], the IC50 was not below 20 µM.
For `S=C(Nc1cc(Cl)ccn1)N1CCN(c2cccc(Cl)c2Cl)CC1` [Compound 226], the IC50 was in the range of 10 to 20 µM.
With `Cc1cc(C)nc(N/C(=N/C#N)N2CCN(c3cccc(C(F)(F)F)c3)CC2)c1` [Compound 95], the IC50 was not below 20 µM.
In the case of `FC(F)(F)c1cccc(N2CCN(C(=S)Nc3cc[nH]n3)CC2)c1` [Compound 236], the IC50 was 5 to 10 µM.
For the compound `Cc1cc(C)nc(NC(=C(C#N)C#N)N2CCN(c3cccc(C(F)(F)F)c3)CC2)c1` [Compound 96], the IC50 is not below 20 µM.
For `Cc1cc(C)nc(NC(=S)N2CC3CN(c4ccc(Cl)cc4C(F)(F)F)CC3C2)c1` (stereo not drawn) [Compound 223], the IC50 was 10 to 20 µM.
`Cc1ccnc(NC(=S)N2CCN(c3cc(C(F)(F)F)cc(C(F)(F)F)c3)CC2)c1` [Compound 170]: the IC50 lay within 5 to 10 µM.
Consider `Cc1cc(C)nc(NC(=S)N2CCN(Cc3cccc4ccccc34)CC2)c1` [Compound 168], for which the IC50 was not below 20 µM.
The value for `Cc1cc(C)nc(NC(=S)N2CCCC(Nc3ccc(C(F)(F)F)cc3)C2)c1` (stereo not drawn) [Compound 252] was less than 5 µM; that for `Cc1cc(C)nc(NC(=S)N2CCN(c3cc(C(F)(F)F)nc(C)n3)CC2)c1` [Compound 153] was 10 to 20 µM; that for `Cc1ccnc(NC(=S)N[C@@H]2CCN(c3cccc(C(F)(F)F)c3)C2)c1` [Compound 42] was not below 20 µM.
To `Cc1cc(C)nc(NC(=S)N2CCN(c3cccc([S+](C)(=O)[O-])c3)CC2)c1` [Compound 140] belongs not below 20 µM; to `Cc1ccnc(NC(=S)N2CCN(c3cccc([N+](=O)[O-])c3)CC2)c1` [Compound 5], not below 20 µM; to `Cc1cccc(NC(=S)N2CCN(c3cccc(C(F)(F)F)c3)CC2)c1` [Compound 23], not below 20 µM.
As for `Cc1cc(C)nc(NC(=S)N2CCN(c3ccc4cnccc4c3)CC2)c1` [Compound 148], the IC50 lay within 10 to 20 µM.
To `Cc1ccnc(NC(=S)N2CCC(Nc3cccc(C(F)(F)F)c3)CC2)c1` [Compound 56] belongs 5 to 10 µM; to `Cc1ccc2nc(NC(=S)N3CCN(c4cccc(C(F)(F)F)c4)CC3)[nH]c2c1` [Compound 239], 10 to 20 µM; to `Cc1cc(C)nc(NC(=S)N2CCN(c3ncnc4sccc34)CC2)c1` [Compound 120], not below 20 µM.
Consider `COc1ccccc1CN1CCN(C(=S)Nc2cc(C)cc(C)n2)CC1` [Compound 286], for which the IC50 was in the range of 10 to 20 µM.
Regarding `Cc1cc(C)nc(NC(=S)N2CCN(c3cccc(C(F)(F)F)n3)CC2)c1` [Compound 116], the IC50 lay within 5 to 10 µM.
In the case of `Cc1cncc(NC(=S)N2CCN(c3cccc(C(F)(F)F)c3)CC2)c1` [Compound 29], the IC50 is 5 to 10 µM.
As for `Cc1cccc(CN2CCN(C(=S)Nc3cc(C)cc(C)n3)CC2)c1` [Compound 291], the IC50 is less than 5 µM.
The value for `Cc1ccnc(NC(=S)N2CC3CN(c4cccc(C(F)(F)F)c4)CC3C2)c1` (stereo not drawn) [Compound 45] was 10 to 20 µM; that for `Cc1cc(C)nc(NC(=S)N2CCN(c3cc4ccccc4cn3)CC2)c1` [Compound 145] was not below 20 µM.
Regarding `Cc1ccnc(NC(=S)N2CCN(c3cc(Cl)cc(Cl)c3)CC2)c1` [Compound 169], the IC50 was in the range of 5 to 10 µM.
For the compound `COc1ccnc(NC(=S)N2CCN(c3ccc(Cl)cc3Cl)CC2)c1` [Compound 181], the IC50 fell in the range of 10 to 20 µM.
To `Cc1ccnc(NC(=S)N2CCN(c3cccc(C(F)(F)F)c3)C2)c1` [Compound 44] belongs not below 20 µM; to `Cc1cc(C)nc(NC(=S)N2CCN(CC3CC3)CC2)c1` [Compound 301], not below 20 µM; to `Cc1ccnc(NC(=S)N[C@H]2CCN(c3cccc(C(F)(F)F)c3)C2)c1` [Compound 43], not below 20 µM.
Consider `Cc1ccnc(NC(=S)N2CCN(c3cccc(C(F)(F)F)c3)C[C@@H]2C)c1` [Compound 48], for which the IC50 lay within 10 to 20 µM.
With `Cc1ccnc(NC(=S)N2CCN(c3ccc(C(F)(F)F)cc3)CC2)c1` [Compound 4], the IC50 is 5 to 10 µM.
Regarding `Cc1cc(C)nc(NC(=S)N2CCN(Cc3ccccc3F)CC2)c1` [Compound 288], the IC50 fell in the range of 10 to 20 µM.
For the compound `COC(=O)c1ccnc(NC(=S)N2CCN(c3cccc(C(F)(F)F)c3)CC2)c1` [Compound 28], the IC50 is less than 5 µM.
As for `Cc1cc(C)nc(NC(=S)N2CCN(c3ccc4nsnc4c3)CC2)c1` [Compound 163], the IC50 fell in the range of 10 to 20 µM.
To `CSC(Cc1ccc(Cl)cc1)C(=O)Nc1ccc(Cl)cc1C(=O)O` (stereo not drawn) [Compound 19] belongs not below 20 µM; to `CN(C)c1ccc2nc(NC(=S)N3CCN(c4cccc(C(F)(F)F)c4)CC3)sc2c1` [Compound 144], not below 20 µM; to `Cc1cc(C)nc(NC(=S)N2CCN(c3cccc(C(=O)O)c3)CC2)c1` [Compound 102], not below 20 µM.
As to `Cc1cc(C)nc(NC(=S)N2CCC(C(=O)N3CCCCC3)CC2)c1` [Compound 260], the IC50 was not below 20 µM.
For the compound `Cc1ccnc(N(C)C(=S)N2CCN(c3cccc(C(F)(F)F)c3)CC2)c1` [Compound 52], the IC50 is not below 20 µM.
To `Cc1cc(C)nc(NC(=S)N2CCN(Cc3c(F)cccc3Cl)CC2)c1` [Compound 94] belongs 5 to 10 µM.
As to `Cc1cc(C)nc(NC(=S)N2CCN(c3cccc4nccn34)CC2)c1` [Compound 150], the IC50 is not below 20 µM.
In the case of `Cc1ccnc(NC(=S)N2CC3CN(c4ncc(C(F)(F)F)cc4Cl)CC3C2)c1` (stereo not drawn) [Compound 227], the IC50 was 10 to 20 µM.
On to `Cc1cc(C)nc(NC(=S)N2CCN(c3cccc(OC(F)(F)F)c3)CC2)c1` [Compound 134], for which the IC50 lay within 5 to 10 µM.
The value for `Cc1cc(C)nc(NC(=S)N2CCN(c3ccc4ccccc4c3)CC2)c1` [Compound 70] was 5 to 10 µM; that for `FC(F)(F)c1cccc(N2CCN(C(=S)Nc3nccc4cccnc34)CC2)c1` [Compound 204] was 10 to 20 µM; that for `Cc1ccnc(NC(=S)N2CC3CN(c4ccc(Cl)cc4C(F)(F)F)CC3C2)c1` (stereo not drawn) [Compound 224] was not below 20 µM.
For `Cc1cc(C)nc(NC(=S)N2CCN(c3ccsc3)CC2)c1` [Compound 166], the IC50 was not below 20 µM.
Consider `Cc1cc(C)nc(NC(=S)N2CCN(Cc3ccc(C(F)(F)F)cc3)C(c3ccccc3)C2)c1` (stereo not drawn) [Compound 273], for which the IC50 was 10 to 20 µM.
The value for `Cc1cc(C)nc(NC(=S)N2CCN(c3nnc(C(F)(F)F)s3)CC2)c1` [Compound 107] was 10 to 20 µM; that for `FC(F)(F)c1ccc(N2CCN(C(=S)Nc3ccccn3)CC2)cc1` [Compound 25] was 5 to 10 µM.
The value for `Cc1cc(C)nc(NC(=S)N2CCN(Cc3ccccn3)CC2)c1` [Compound 287, N-(4,6-dimethylpyridin-2-yl)-4-(pyridin-2-ylmethyl)piperazine-1-carbothioamide] was not below 20 µM; that for `Cc1cc(C)nc(NC(=S)N2CCN(c3cncc4ccccc34)CC2)c1` [Compound 146] was 10 to 20 µM.
On to `COc1ccc(NC(=S)N2CCN(c3cccc(C(F)(F)F)c3)CC2)nc1` [Compound 37], for which the IC50 was not below 20 µM.
For `Cc1cc(C)nc(NC(=S)N2CCN(Cc3ccc(C(F)(F)F)cc3)C(CO)C2)c1` (stereo not drawn) [Compound 294], the IC50 lay in the range of 10 to 20 µM.
In the case of `Cc1cc(C)nc(NC(=S)N2CCN(c3cc(C(F)(F)F)nc4ccccc34)CC2)c1` [Compound 122], the IC50 is less than 5 µM.
On to `Cc1cc(C)nc(NC(=S)N2CCN(Cc3ccccc3)CC2)c1` [Compound 274], for which the IC50 is 10 to 20 µM.
The value for `Cc1ccnc(NC(=S)N2CC[C@@H](Nc3cccc(C(F)(F)F)c3)C2)c1` [Compound 55] was not below 20 µM.
